Source: patent publication US9981908B2, “Amino acid derivatives” (priority 2013, dated 2018)
Where two headings read alike, the source gives them in different places.

Molecular target: T1, pylRS/tRNA pair (Methanosarcina mazei, UniProt Q8PWY1, Y384F)
T1 construct: expressed in transfected cells; host or cells: HEK293 cells stably expressing pylRS
Type: cell-based
Conditions: HEK293 cells stably expressing pylRS, nnAAs at 2 mM for 2-3 days; for incorporation in the GFP reporter gene (green cells) / MFI: tRNApyl and GFPY40 reporter; for Positive GFP Assay: transfected with tRNApyl and GFPY40 reporter, visual inspection under the microscope; for MFI: GFP fluorescence by flow cytometry, geometric mean of the fluorescent cells
Description: An in vitro cell based assay was developed to assess the compatibility of the pylRS/tRNA pair and the pyrrolysine analogs of the present invention (nnAAs) by and the efficiency of nnAAs integration into a target protein. For this, HEK293 cells stably expressing pylRS (SEQ ID NO 4) were transiently transfected with plasmids for the expression of tRNApyl (SEQ ID NO 7) and a reporter construct encoding GFPY40 (containing amber codon in place of tyrosine at amino acid residue number 40 (where 1 is the initiator methionine)) (SEQ ID NOs 10 and 11) using standard transfection protocols. Transfected cells were incubated with nnAAs at 2 mM for 2-3 days GFP production was analyzed qualitatively by visual inspection under the microscope. The GFP fluorescence was quantified by flow cytometry using an Accuri flow cytometer and the geometric mean of the fluorescent cells determined.
This cell based assay was used to determine whether the different nnAAs were suitable substrates for the pylRS and allowed its translation into a target protein. Cells expressing the PylRS/tRNApyl pair and containing a vector encoding the GFPY40 reporter gene were incubated in the presence of the nnAAs. nnAAs that are readily utilized by the PylRS/tRNApyl pair support the translation of the nnAA into the amber site of GFP and allow read-through of the gene producing full length GFP (fluorescent protein). The fluorescence intensity of the cells depends on the efficiency of nnAA incorporation. Thus, nnAAs that are poorly utilized produce weakly fluorescent or non-fluorescing cells. […] Furthermore, the relative expression levels in each sample was compared to those generated by substrates known to be efficiently utilized by pylRS.

T1 sequence (Q8PWY1 whole entry Y384F): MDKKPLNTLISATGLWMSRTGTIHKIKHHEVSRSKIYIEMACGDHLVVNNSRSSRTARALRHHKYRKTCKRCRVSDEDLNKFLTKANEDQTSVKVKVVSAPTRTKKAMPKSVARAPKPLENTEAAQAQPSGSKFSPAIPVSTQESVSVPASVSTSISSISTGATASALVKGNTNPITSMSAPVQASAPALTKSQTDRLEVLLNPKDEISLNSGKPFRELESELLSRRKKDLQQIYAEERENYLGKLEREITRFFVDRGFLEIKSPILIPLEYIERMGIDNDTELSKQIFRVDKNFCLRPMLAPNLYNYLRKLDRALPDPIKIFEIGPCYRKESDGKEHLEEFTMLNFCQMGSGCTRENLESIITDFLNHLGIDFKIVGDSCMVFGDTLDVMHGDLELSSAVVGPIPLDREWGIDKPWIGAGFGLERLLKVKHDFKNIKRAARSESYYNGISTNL

Which results are given for [N-]=[N+]=NCCOC(=O)NCCSCC(N)C(=O)O (stereo in doubt) [Formula III.1, (2S)-2-amino-3-[(2-{[(2-azidoethoxy)carbonyl]amino}ethyl)sulfanyl]propanoic acid]?
incorporation in the GFP reporter gene (green cells): incorporated in the GFP reporter gene and yield green cells; Positive GFP Assay: Yes

For C#CCOC(=O)NCCSCC(N)C(=O)O (stereo in doubt) [Formula III.2, (2S)-2-amino-3-[(2-{[(prop-2-yn-1-yloxy)carbonyl]amino}ethyl)sulfanyl]propanoic acid], which “incorporation in the GFP reporter gene (green cells)” value (from here on “incorporation”) is on record?
Its value is “incorporated in the GFP reporter gene and yield green cells”.

And the “Positive GFP Assay” value?
The value was “Yes”.

Which “incorporation” value does the source give for C=CCOC(=O)NCCSCC(N)C(=O)O (stereo in doubt) [Formula III.3, (2S)-2-amino-3-[(2-{[(prop-2-en-1-yloxy)carbonyl]amino}ethyl)sulfanyl]propanoic acid] here?
The value was “incorporated in the GFP reporter gene and yield green cells”.

And the “Positive GFP Assay” value?
Its value is “Yes”.

Which results are given for C=CCNC(=O)CCCSCC(N)C(=O)O (stereo in doubt) [Formula III.12, (2S)-2-amino-3-({3-[(prop-2-en-1-yl)carbamoyl]propyl}sulfanyl)propanoic acid]?
incorporation in the GFP reporter gene (green cells): incorporated in the GFP reporter gene and yield green cells; Positive GFP Assay: Yes

Which results are given for [N-]=[N+]=NCCNC(=O)CCCSCC(N)C(=O)O (stereo in doubt) [Formula III.13, (2S)-2-amino-3-({3-[(2-azidoethyl)carbamoyl]propyl}sulfanyl)propanoic acid]?
incorporation in the GFP reporter gene (green cells): incorporated in the GFP reporter gene and yield green cells; Positive GFP Assay: Yes

How did the MFI turn out when [N-]=[N+]=NCCOC(=O)NCCCC[C@H](N)C(=O)O [Formula IA.1, (2S)-2-amino-6-{[(2-azidoethoxy)carbonyl]amino}hexanoic acid] was run?
Its MFI is 931,289.

And the MFI (listed as 1A.1)?
Its MFI is 931289.

And the “Positive GFP Assay” value?
Its value is “Yes”.

C#CCOC(=O)NCCCC[C@H](N)C(=O)O [Formula IA.2, (2S)-2-amino-6-{[(prop-2-yn-1-yloxy)carbonyl]amino}hexanoic acid] was tested. Which MFI did it give?
Its MFI is 1,676,250.

And the MFI (listed as 1A.2)?
The MFI was 1676250.

What about the “Positive GFP Assay” value of the same compound?
Its value is “Yes”.

What does the source list for C=CCOC(=O)NCCCC[C@H](N)C(=O)O [Formula IA.3, (2S)-2-amino-6-{[(prop-2-en-1-yloxy)carbonyl]amino}hexanoic acid]?
MFI: 2,250,000; MFI (listed as 1A.3): 2250000; Positive GFP Assay: Yes

With [N-]=[N+]=NCCNC(=O)NCCCC[C@H](N)C(=O)O [Formula IA.4, (2S)-2-amino-6-{[(2-azidoethyl)carbamoyl]amino}hexanoic acid] as the compound, how does the “incorporation” value read?
The value was “incorporated in the GFP reporter gene and yield green cells”.

And the MFI?
Its MFI is 254250.

And the “Positive GFP Assay” value?
The value was “Yes”.

With C=CCNC(=O)NCCCC[C@H](N)C(=O)O [Formula IA.5, (2S)-2-amino-6-{[(prop-2-en-1-yl)carbamoyl]amino}hexanoic acid] as the compound, how does the “incorporation” value read?
The value was “incorporated in the GFP reporter gene and yield green cells”.

What does the source list for [N-]=[N+]=NCCOC(=O)NCC(=O)NC[C@H](N)C(=O)O [Formula V.1, (2S)-2-amino-3-(2-{[(2-azidoethoxy)carbonyl]amino}acetamido)propanoic acid]?
incorporation in the GFP reporter gene (green cells): incorporated in the GFP reporter gene and yield green cells; Positive GFP Assay: Yes

How did the “incorporation” value turn out when C#CCOC(=O)NCC(=O)NC[C@H](N)C(=O)O [Formula V.2, (2S)-2-amino-3-(2-{[(prop-2-yn-1-yloxy)carbonyl]amino}acetamido)propanoic acid] was run?
Its value is “incorporated in the GFP reporter gene and yield green cells”.

How did the “incorporation” value turn out when C=CCOC(=O)NCC(=O)NC[C@H](N)C(=O)O [Formula V.3, (2S)-2-amino-3-(2-{[(prop-2-en-1-yloxy)carbonyl]amino}acetamido)propanoic acid] was run?
Its value is “incorporated in the GFP reporter gene and yield green cells”.

What about the “Positive GFP Assay” value of the same compound?
The value was “Yes”.

With CCCC(N=[N+]=[N-])C(=O)NCCCC[C@H](N)C(=O)O (stereo partly drawn) [Formula VII.1, (2S)-2-amino-6-(2-azidopentanamido)hexanoic acid] as the compound, how does the “incorporation” value read?
Its value is “incorporated in the GFP reporter gene and yield green cells”.

And the “Positive GFP Assay” value?
The value was “Yes”.

Which “Positive GFP Assay” value does the source give for C=CCOC(=O)NC(CCN=[N+]=[N-])C(=O)NC[C@H](N)C(=O)O (stereo partly drawn) [Formula VIII.1, (2S)-2-amino-3-(4-azido-2-{[(prop-2-en-1-yloxy)carbonyl]amino}butanamido)propanoic acid] here?
Its value is “Yes”.
